The test deals with T1, Kv1.5 (Homo sapiens, UniProt P22460).
T1 construct: expressed in transfected cells; host or cells: HEK or LTK- cells
The experiment in a line: Kv1.5 Patch Clamp EP. The following applies: 1.0 μM, single point; whole cell patch clamp, Kv1.5 stably over expressed in HEK or LTK- cells. Type of test: cell-based. The protocol: The external solution is standard Tyrodes solution. […] Inhibition was measured at the end of the 1 second pulses and expressed relative to controls. Initial Kv1.5 inhibition is estimated by single point determinations done at 1 μM.
On the technique in general: The patch-clamp technique gives a direct electrical read-out from membranes.

The structures appear in SMILES notation. Counter-ions that a name gives are not always drawn.

From patent publication US7504517B2, “Kv1.5 potassium channel inhibitors” (Wyeth, priority 2006, dated 2009) come the findings set out here.

T1 sequence (P22460 whole entry): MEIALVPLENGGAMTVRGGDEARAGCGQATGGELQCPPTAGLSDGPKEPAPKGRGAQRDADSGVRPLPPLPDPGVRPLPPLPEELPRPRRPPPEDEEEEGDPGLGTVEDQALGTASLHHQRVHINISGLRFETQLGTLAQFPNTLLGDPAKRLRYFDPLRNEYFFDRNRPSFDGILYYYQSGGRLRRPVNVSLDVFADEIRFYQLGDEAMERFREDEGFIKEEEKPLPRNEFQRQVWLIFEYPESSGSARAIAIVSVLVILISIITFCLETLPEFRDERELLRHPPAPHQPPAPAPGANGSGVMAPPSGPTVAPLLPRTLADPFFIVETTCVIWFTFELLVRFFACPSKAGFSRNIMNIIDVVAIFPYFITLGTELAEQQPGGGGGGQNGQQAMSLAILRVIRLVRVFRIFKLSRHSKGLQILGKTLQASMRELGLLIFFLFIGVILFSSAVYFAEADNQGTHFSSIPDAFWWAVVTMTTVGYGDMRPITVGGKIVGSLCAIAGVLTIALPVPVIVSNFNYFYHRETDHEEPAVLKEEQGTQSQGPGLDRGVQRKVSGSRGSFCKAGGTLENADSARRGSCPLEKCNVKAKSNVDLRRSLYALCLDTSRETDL

`COc1ccc(C2CN(NS(C)(=O)=O)C(=O)N2CCCc2ccccc2)cc1` (stereo not drawn) [Compound 46, 1-(Methylsulfonylamino)-3-(3-phenylpropyl)-4-(4-methoxyphenyl)-2-imidazolidinone]: the inhibition – broadly, how much of the control response was suppressed – at 1 µM amounted to 40%.

Molecule `COc1ccc(CCN2C(=O)N(NS(=O)(=O)CCN3CCOCC3)CC2c2ccc3c(c2)OCCO3)cc1` (stereo not drawn) [Compound 125, N-{4-(2,3-dihydro-1,4-benzodioxin-6-yl)-3-[2-(4-methoxyphenyl)ethyl]-2-oxoimidazolidin-1-yl}-2-morpholin-4-ylethanesulfonamide] registered an inhibition at 1 µM of 42%.

In the case of `CN(C)CCOc1ccc(CCN2C(=O)N(NS(C)(=O)=O)CC2c2ccc(C(C)(C)C)cc2)cc1` (stereo not drawn) [Compound 118, N-[4-(4-tert-butylphenyl)-3-(2-{4-[2-(dimethylamino)ethoxy]phenyl}ethyl)-2-oxoimidazolidin-1-yl]methanesulfonamide], at 1 µM the inhibition was 9%.

`COc1ccc(CCN2C(=O)N(NS(=O)(=O)CC(N)=O)CC2c2ccc(OC)cc2)cc1` (stereo not drawn) [Compound 115, 2-({4-(4-methoxyphenyl)-3-[2-(4-methoxyphenyl)ethyl]-2-oxoimidazolidin-1-yl}sulfamoyl)acetamide] had an inhibition at 1 µM of 5%.

On to `CCC1(CC)CN(NS(=O)(=O)Cc2cccnc2)C(=O)N1CCc1ccc(OC)cc1` [Compound 162, N-{4,4-diethyl-3-[2-(4-methoxyphenyl)ethyl]-2-oxoimidazolidin-1-yl}-1-pyridin-3-ylmethanesulfonamide], for which the inhibition at 1 µM is 8%.

With `COc1ccc(CCN2C(=O)N(NS(=O)(=O)N3CCN(C)CC3)CC2c2ccc(C)c(C)c2)cc1` (stereo not drawn) [Compound 166, N-{4-(3,4-dimethylphenyl)-3-[2-(4-methoxyphenyl)ethyl]-2-oxoimidazolidin-1-yl}-4-methylpiperazine-1-sulfonamide], the inhibition at 1 µM stood at 41%.

Take `COc1ccc(CCN2C(=O)N(NCCn3ccnc3)CC2c2ccc(C(C)(C)C)cc2)cc1` (stereo not drawn) [Compound 121, 4-(4-tert-butylphenyl)-1-{[2-(1H-imidazol-1-yl)ethyl]amino}-3-[2-(4-methoxyphenyl)ethyl]imidazolidin-2-one]: 1 µM produced 7% inhibition.

Consider `COc1ccc(CCN2C(=O)N(NS(C)(=O)=O)CC2Cc2ccc(F)cc2)cc1` (stereo not drawn) [Compound 120, N-{4-(4-fluorobenzyl)-3-[2-(4-methoxyphenyl)ethyl]-2-oxoimidazolidin-1-yl}methanesulfonamide], for which testing at 1 µM gave an inhibition of 5%.

Regarding `COc1ccc(CCN2C(=O)N(N)CC2C2(c3ccc(F)cc3)CC2)cc1` (stereo not drawn) [Compound 163, 1-amino-4-[1-(4-fluorophenyl)cyclopropyl]-3-[2-(4-methoxyphenyl)ethyl]imidazolidin-2-one], the inhibition at 1 µM is 16%.

On to `COc1ccc(CCN2C(=O)N(NS(=O)(=O)CC(=O)N(C)CC(=O)N(C)C)CC2c2ccc(C3CC3)cc2)cc1` (stereo not drawn) [Compound 132, 2-(N-(4-(4-cyclopropylphenyl)-3-(4-methoxyphenethyl)-2-oxoimidazolidin-1-yl)sulfamoyl)-N-(2-(dimethylamino)-2-oxoethyl)-N-methylacetamide], for which at 1 µM the inhibition was 3%.

On to `COc1ccc(CCN2C(=O)N(NS(=O)(=O)CC(=O)NC3CC3)CC2c2ccc(OC)cc2)cc1` (stereo not drawn) [Compound 56, 1-[[2-(Cyclopropylamino)-2-oxoethyl]sulfonylamino]-3-[2-(4-methoxyphenyl)-ethyl]-4-(4-methoxyphenyl)-2-imidazolidinone], for which testing at 1 µM gave an inhibition of 39%.

In the case of `COc1ccc(CCN2C(=O)N(NS(=O)(=O)Cc3cccnc3)CC2C2(c3ccccc3)CC2)cc1` (stereo not drawn) [Compound 134, N-{3-[2-(4-methoxyphenyl)ethyl]-2-oxo-4-(1-phenylcyclopropyl)imidazolidin-1-yl}-1-pyridin-3-ylmethanesulfonamide], the inhibition at 1 µM was 22%.

With `COc1ccc(CCN2C(=O)N(N)CC2c2ccc(OC(F)F)cc2)cc1` (stereo not drawn) [Compound 5, 1-Amino-3-[2-(4-methoxyphenyl)ethyl]-4-(4-difluoromethoxyphenyl)-2-imidazolidinone 4-methylbenzenesulfonic acid salt], the inhibition at 1 µM is 36%.

For `COc1ccc(CCN2C(=O)N(NS(N)(=O)=O)CC2c2ccc(OC)cc2)cc1` (stereo not drawn) [Compound 167, N-{4-(4-methoxyphenyl)-3-[2-(4-methoxyphenyl)ethyl]-2-oxoimidazolidin-1-yl}sulfamide], testing at 1 µM gave an inhibition of 36%.

The molecule `COc1ccc(CCN2C(=O)N(N)CC2c2ccc(OC(C)C)cc2)cc1` (stereo not drawn) [Compound 164, 1-amino-4-(4-isopropoxyphenyl)-3-[2-(4-methoxyphenyl)ethyl]imidazolidin-2-one] came in with an inhibition at 1 µM of 2%.

Take `COc1ccc(CCN2C(=O)N(NS(C)(=O)=O)CC2c2ccc(OC)c(OC)c2)cc1` (stereo not drawn) [Compound 158, N-{4-(3,4-dimethoxyphenyl)-3-[2-(4-methoxyphenyl)ethyl]-2-oxoimidazolidin-1-yl}methanesulfonamide]: the inhibition at 1 µM stood at 10%.

Molecule `COc1ccc(CCN2C(=O)N(N)CC2c2ccc(OC)cc2)cc1` (stereo not drawn) [Compound 175, 1-amino-4-(4-methoxyphenyl)-3-[2-(4-methoxyphenyl)ethyl]imidazolidin-2-one] came in with an inhibition at 1 µM of 7%.

Take `COc1ccc(C2CN(NS(C)(=O)=O)C(=O)N2CCc2ccc(OC(F)(F)F)cc2)cc1` (stereo not drawn) [Compound 152, N-[4-(4-methoxyphenyl)-2-oxo-3-{2-[4-(trifluoromethoxy)phenyl]ethyl}imidazolidin-1-yl]methanesulfonamide]: the inhibition at 1 µM amounted to 16%.

Consider `COc1ccc(CCN2C(=O)N(NS(C)(=O)=O)CC2c2ccc(OC)nc2)cc1` (stereo not drawn) [Compound 149, N-{3-[2-(4-methoxyphenyl)ethyl]-4-(6-methoxypyridin-3-yl)-2-oxoimidazolidin-1-yl}methanesulfonamide], for which the inhibition at 1 µM worked out at 9%.

In turn, `COc1ccc(CCN2C(=O)N(N)CC2c2ccc(C(C)(C)C)cc2)cc1` (stereo not drawn) [Compound 2, 1-Amino-4-[4-(tert-butyl)phenyl]-3-[2-(4-methoxyphenyl)ethyl]-2-imidazolidinone] returned an inhibition at 1 µM of 46%.

For the molecule `COc1ccc(CCN2C(=O)N(N3CCCS3(=O)=O)CC2c2ccc(C3CC3)cc2)cc1` (stereo not drawn) [Compound 124, 4-(4-cyclopropylphenyl)-1-(1,1-dioxidoisothiazolidin-2-yl)-3-[2-(4-methoxyphenyl)ethyl]imidazolidin-2-one], testing at 1 µM gave an inhibition of 38%.

`COc1ccc(CCN2C(=O)N(N)CC2Cc2ccc(F)cc2)cc1` (stereo not drawn) [Compound 129, 1-amino-4-(4-fluorobenzyl)-3-[2-(4-methoxyphenyl)ethyl]imidazolidin-2-one] yielded an inhibition at 1 µM of 4%.

In turn, `COc1ccc(CCN2C(=O)N(N3CCN(C(=O)N(C)C)CC3)CC2c2ccc(C(C)(C)C)cc2)cc1` (stereo not drawn) [Compound 130, 4-{4-(4-tert-butylphenyl)-3-[2-(4-methoxyphenyl)ethyl]-2-oxoimidazolidin-1-yl}-N,N-dimethylpiperazine-1-carboxamide] yielded an inhibition at 1 µM of 37%.

In the case of `COc1ccc(CCCN2C(=O)N(NS(=O)(=O)CS(C)(=O)=O)CC2c2ccc(OC)cc2)cc1` (stereo not drawn) [Compound 126, N-{4-(4-methoxyphenyl)-3-[3-(4-methoxyphenyl)propyl]-2-oxoimidazolidin-1-yl}-1-(methylsulfonyl)methanesulfonamide], testing at 1 µM gave an inhibition of 46%.

As for `COc1ccc(CCN2C(=O)N(NS(C)(=O)=O)CC2c2ccc3c(c2)OCCO3)cc1OC` (stereo not drawn) [Compound 144, N-{4-(2,3-dihydro-1,4-benzodioxin-6-yl)-3-[2-(3,4-dimethoxyphenyl)ethyl]-2-oxoimidazolidin-1-yl}methanesulfonamide], the inhibition at 1 µM was determined as 16%.

In turn, `COc1ccc(CCN2C(=O)N(NS(=O)(=O)CC(=O)NCC3CC3)C[C@H]2c2ccc(OC)cc2)cc1` [Compound 136, N-(cyclopropylmethyl)-2-({(4R)-4-(4-methoxyphenyl)-3-[2-(4-methoxyphenyl)ethyl]-2-oxoimidazolidin-1-yl}sulfamoyl)acetamide] gave an inhibition at 1 µM of 44%.

As to `COCCOc1ccc(C2CN(N)C(=O)N2CCc2ccc(OC)cc2)cc1` (stereo not drawn) [Compound 141, 1-amino-4-[4-(2-methoxyethoxy)phenyl]-3-[2-(4-methoxyphenyl)ethyl]imidazolidin-2-one], the inhibition at 1 µM came to 4%.

The molecule `COc1ccc(CCN2C(=O)N(NCc3nccn3C)CC2c2ccc(C)c(C)c2)cc1` (stereo not drawn) [Compound 138, 4-(3,4-dimethylphenyl)-3-[2-(4-methoxyphenyl)ethyl]-1-{[(1-methyl-1H-imidazol-2-yl)methyl]amino}imidazolidin-2-one] yielded an inhibition at 1 µM of 7%.

`COc1ccc(CCN2C(=O)N(NC(=O)Cc3cccnc3)CC2c2ccc(C3CC3)cc2)cc1` (stereo not drawn) [Compound 122, N-{4-(4-cyclopropylphenyl)-3-[2-(4-methoxyphenyl)ethyl]-2-oxoimidazolidin-1-yl}-2-pyridin-3-ylacetamide] registered an inhibition at 1 µM of 36%.

As for `COc1ccc(CCN2C(=O)N(NS(C)(=O)=O)CC2c2ccc(C(F)(F)F)cc2)cc1` (stereo not drawn) [Compound 22, 1-(Methylsulfonylamino)-3-[2-(4-methoxyphenyl)ethyl]-4-(4-trifluoromethyl-phenyl)-2-imidazolidinone], the inhibition at 1 µM was 30%.
